Source: patent US20040029965A1, “Formulations for reducing or eliminating toxicity of enviromental hormones containing ursodeoxycholic acid” (priority 2000, published 2004)
Marks after values point to notes of the source that are not given here.

How the values were obtained:
Assay type in all cases: in vivo
C57B1/6J mice [1] = assay: Electron microscopy of testes (cellular microstructures); conditions: TCDD 27.5 μg/kg alone; FIG. 9
Experimental: (§1) 2,3,7,8-tetrachlorodibenzo-p-dioxin (TCDD) dissolved in toluene (purity of 95% or more as a result of gas chromatography analysis), manufactured by Chem. Services Inc. in USA, was volatilized with nitrogen to obtain powder. The obtained powder was dissolved in a mixed solvent containing acetone and corn oil with a volume ratio of 1:6. The resulting solution each containing 110, 27.5 and 6.9 μg/kg of TCDD was subcutaneously injected to mice at a volume of 5 ml per body weight. […] The mice were supplied with the feed from 10 days before (pre-administration) to 60 days after administration of TCDD (post-administration).
Upon completion of the experiment for 60 days, the experimental animals were fasted for 24 hours and anesthetized with ether. Then, they were abdominally incised and blood was gathered from abdominal vena cava. They were sacrificed by the release of blood. Liver, kidneys, testes and epididymides were extracted and all the extracted organs were weighed. Only the testes were separately kept and observed under optical and electron microscopes. For biochemical finding test, serum was separated from blood with a centrifuge and the separated serum was analyzed with an automated blood biochemical analyzer, Dimension (Dupont, USA). Blood was put to another blood gathering bottle and then, analyzed with an automated blood cell analyzer, Celldyn (Abbott, USA). […]

C57B1/6J mice [2] = assay: Blood (serum) biochemical changes in mice by a single subcutaneous injection of TCDD
Experimental: (§2) Male C57B1/6J mice of 5 weeks old having the average weight of 18-22 g which had been bred in CRJ (Charles River in Japan) were purchased and used in this example as experimental animals. Those mice were acclimated under the constant breeding condition, i.e. the temperature of 24±1° C., the humidity of 60±10% and the light and darkness cycle of 12 hours, for one week and thereafter, utilized in the experiment.
as §1
(§3) Upon completion of the experiment for 60 days, the experimental animals were fasted for 24 hours and anesthetized with ether. Then, they were abdominally incised and blood was gathered from abdominal vena cava. They were sacrificed by the release of blood. Liver, kidneys, testes and epididymides were extracted and all the extracted organs were weighed. Only the testes were separately kept and observed under optical and electron microscopes. For biochemical finding test, serum was separated from blood with a centrifuge and the separated serum was analyzed with an automated blood biochemical analyzer, Dimension (Dupont, USA). Blood was put to another blood gathering bottle and then, analyzed with an automated blood cell analyzer, Celldyn (Abbott, USA).
(§4) The results are expressed as Mean±Standard Deviation values. For statistical analysis of the body weight, feed and water uptake, biochemical findings, hematological findings and the weight of organ in an acute toxicity test, verification was performed by one way analysis of variance (ANOVA) in case of equal distribution. In case significance was recognized in ANOVA, the Student's t-test was performed in the levels of p<0.05 and p<0.01.
For biochemical findings in the serum, the levels of glucose (GLU), GOT, GPT, Triglyceride (TG), high density lipoprotein (HDL-C), low density lipoprotein (LDL-C) and alkaline phosphatase (ALP) in serum were measured and the results are shown in the following.

C57B1/6J mice [3] = assay: Hematological changes in mice by a single subcutaneous injection of TCDD; design: NEU / LYM / PLT: unit not given here
Experimental: as §2, §1, §3, §4
For hematological findings, white blood cell (WBC), neutrophil (NEU), lymphocyte (LYM), monocyte (MONO), eosinophil (EOS), basophil (BASO) and red blood cell (RBC) counts, and hemoglobin concentration (HGB), hematocrit (HCT), mean cell volume (MCV), mean corpuscular hemoglobin (MCH), mean corpuscular hemoglobin concentration (MCHC), red blood cell distribution width (RDW) and platelet count (PLT) were measured and the results are as follows.

Q: With Clc1cc2c(cc1Cl)Oc1cc(Cl)c(Cl)cc1O2 [TCDD, 2,3,7,8-tetrachlorodibenzo-p-dioxin] as the compound, how does the “heads of sperms, electron microphotograph” value (C57B1/6J mice [1]) read?
A: Heads of sperms were frequently observed in cytoplasmic vacuoles of Sertoli cells

Q: And the ALP (C57B1/6J mice [2]; TCDD 6.9 μg/kg alone)?
A: 69.67 ± 8.80 IU/l

Q: What about the GLU (C57B1/6J mice [2]; TCDD 6.9 μg/kg alone) of the same compound?
A: 96.00 ± 15.15 mg/dL

Q: And the GOT (C57B1/6J mice [2]; TCDD 6.9 μg/kg alone)?
A: 55.16 ± 6.65 IU/l

Q: What about the GPT (C57B1/6J mice [2]; TCDD 6.9 μg/kg alone) of the same compound?
A: 21.66 ± 5.39 IU/l

Q: What about the HDL-C (C57B1/6J mice [2]; TCDD 6.9 μg/kg alone) of the same compound?
A: 39.29 ± 9.38 mg/dL

Q: And the LDL-C (C57B1/6J mice [2]; TCDD 6.9 μg/kg alone)?
A: 24.43 ± 11.81 mg/dL

Q: And the TG (C57B1/6J mice [2]; TCDD 6.9 μg/kg alone)?
A: 76.14 ± 14.03 mg/dL

Q: What about the ALP (C57B1/6J mice [2]; TCDD 27.5 μg/kg alone) of the same compound?
A: 65.4 ± 19.05 IU/l

Q: What about the GLU (C57B1/6J mice [2]; TCDD 27.5 μg/kg alone) of the same compound?
A: 28.20 ± 8.23 mg/dL

Q: And the GOT (C57B1/6J mice [2]; TCDD 27.5 μg/kg alone)?
A: 230.40 ± 72.90 IU/l

Q: And the GPT (C57B1/6J mice [2]; TCDD 27.5 μg/kg alone)?
A: 70.4 ± 23.46 IU/l

Q: What about the HDL-C (C57B1/6J mice [2]; TCDD 27.5 μg/kg alone) of the same compound?
A: 21.80 ± 6.76 mg/dL

Q: And the LDL-C (C57B1/6J mice [2]; TCDD 27.5 μg/kg alone)?
A: 43.80 ± 14.99 mg/dL

Q: And the TG (C57B1/6J mice [2]; TCDD 27.5 μg/kg alone)?
A: 92.67 ± 16.79 mg/dL

Q: And the BASO (C57B1/6J mice [3]; TCDD 6.9 μg/kg alone)?
A: 0.21 ± 0.12 10^3

Q: What about the EOS (C57B1/6J mice [3]; TCDD 6.9 μg/kg alone) of the same compound?
A: 0.01 ± 0.01 10^3

Q: And the HCT (C57B1/6J mice [3]; TCDD 6.9 μg/kg alone)?
A: 43.12 ± 5.04%

Q: And the HGB (C57B1/6J mice [3]; TCDD 6.9 μg/kg alone)?
A: 13.65 ± 1.34 g/dL

Q: What about the LYM (C57B1/6J mice [3]; TCDD 6.9 μg/kg alone) of the same compound?
A: 4.27 ± 2.05 10^3

Q: What about the MCH (C57B1/6J mice [3]; TCDD 6.9 μg/kg alone) of the same compound?
A: 14.70 ± 0.41 pg

Q: What about the MCHC (C57B1/6J mice [3]; TCDD 6.9 μg/kg alone) of the same compound?
A: 31.76 ± 0.70 g/dL

Q: And the MCV (C57B1/6J mice [3]; TCDD 6.9 μg/kg alone)?
A: 46.33 ± 1.97 fL

Q: And the MONO (C57B1/6J mice [3]; TCDD 6.9 μg/kg alone)?
A: 0.10 ± 0.07 10^3

Q: What about the NEU (C57B1/6J mice [3]; TCDD 6.9 μg/kg alone) of the same compound?
A: 0.40 ± 0.24 10^3

Q: And the PLT (C57B1/6J mice [3]; TCDD 6.9 μg/kg alone)?
A: 1140.88 ± 133.39 10^3

Q: What about the RBC (C57B1/6J mice [3]; TCDD 6.9 μg/kg alone) of the same compound?
A: 9.29 ± 0.85 10^6

Q: What about the RDW (C57B1/6J mice [3]; TCDD 6.9 μg/kg alone) of the same compound?
A: 20.38 ± 1.21%

Q: What about the WBC (C57B1/6J mice [3]; TCDD 6.9 μg/kg alone) of the same compound?
A: 5.94 ± 1.85 10^3

Q: What about the BASO (C57B1/6J mice [3]; TCDD 27.5 μg/kg alone) of the same compound?
A: 0.17 ± 0.07 10^3

Q: What about the EOS (C57B1/6J mice [3]; TCDD 27.5 μg/kg alone) of the same compound?
A: 0.018 ± 0.028 10^3

Q: And the HCT (C57B1/6J mice [3]; TCDD 27.5 μg/kg alone)?
A: 39.12 ± 3.25 %

Q: What about the HGB (C57B1/6J mice [3]; TCDD 27.5 μg/kg alone) of the same compound?
A: 12.90 ± 1.00 g/dL

Q: What about the LYM (C57B1/6J mice [3]; TCDD 27.5 μg/kg alone) of the same compound?
A: 1.43 ± 0.60** 10^3

Q: What about the MCH (C57B1/6J mice [3]; TCDD 27.5 μg/kg alone) of the same compound?
A: 14.17 ± 0.40 pg

Q: And the MCHC (C57B1/6J mice [3]; TCDD 27.5 μg/kg alone)?
A: 33.02 ± 0.86 g/dL

Q: And the MCV (C57B1/6J mice [3]; TCDD 27.5 μg/kg alone)?
A: 42.97 ± 0.56 fL

Q: And the MONO (C57B1/6J mice [3]; TCDD 27.5 μg/kg alone)?
A: 0.07 ± 0.04 10^3

Q: And the NEU (C57B1/6J mice [3]; TCDD 27.5 μg/kg alone)?
A: 2.58 ± 0.97** 10^3

Q: What about the PLT (C57B1/6J mice [3]; TCDD 27.5 μg/kg alone) of the same compound?
A: 1473.17 ± 110.35** 10^3

Q: What about the RBC (C57B1/6J mice [3]; TCDD 27.5 μg/kg alone) of the same compound?
A: 9.10 ± 0.71 10^6

Q: And the RDW (C57B1/6J mice [3]; TCDD 27.5 μg/kg alone)?
A: 20.97 ± 2.27%

Q: And the WBC (C57B1/6J mice [3]; TCDD 27.5 μg/kg alone)?
A: 4.29 ± 1.05 10^3
